Source: ChEMBL document CHEMBL4825705, “Iridoid Constituents of Viburnum brachybotryum” (J Nat Prod, 2021)
Where a name gives a salt, the structure may show the parent alone.

system: HCT-116; assay: Cytotoxicity against human HCT-116 cells assessed as cell growth inhibition measured after 48 hrs by MTT assay; assay type: functional, cell-based; conditions: HCT-116, 48 h

Q: Which IC50 does the source give for `C=C1[C@H]2O[C@@H](OC(=O)/C=C(/C)COC(C)=O)[C@H]3[C@@H]1CC(=O)[C@@]3(CCl)O2` here?
A: 5.2 µM

Q: With `C=C1[C@H]2O[C@@H](OC(=O)/C=C(/C)COC(C)=O)[C@H]3[C@@H]1CC(=O)[C@@]3(CO)O2` as the molecule, how does the IC50 read?
A: 4.9 µM

Q: Which IC50 does the source give for `COc1cccc2c1C(=O)c1c(O)c3c(c(O)c1C2=O)C[C@@](O)(C(=O)CO)C[C@@H]3O[C@H]1C[C@H](N)[C@H](O)[C@H](C)O1` [DOXORUBICIN HYDROCHLORIDE] here?
A: 0.16 µM
